Molecular target: T1, FscTE (Streptomyces sp. FR-008, UniProt Q6W5Q5)
T1 construct: His6 tag, pET28a, expressed in E. coli BL21(DE3)/pGro7
T1 sequence (Q6W5Q5 1-285): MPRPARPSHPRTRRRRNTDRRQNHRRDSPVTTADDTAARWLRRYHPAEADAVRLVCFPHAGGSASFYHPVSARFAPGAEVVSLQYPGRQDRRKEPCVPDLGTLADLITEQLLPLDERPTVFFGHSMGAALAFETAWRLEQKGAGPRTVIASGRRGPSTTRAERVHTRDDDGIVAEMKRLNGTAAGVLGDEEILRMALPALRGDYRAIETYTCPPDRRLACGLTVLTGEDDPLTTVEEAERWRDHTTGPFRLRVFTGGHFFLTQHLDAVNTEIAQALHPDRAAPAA
Experiment: DTNB spectrophotometric assay at […] nm
Assay type: biochemical

CCCC(=O)SCCNC(C)=O [butyryl-SNAC]
DTNB spectrophotometric assay at 412 nm: A similar phenomenon was observed when butyryl-SNAC was used as a substrate

From paper PMC7492732, “Offloading Role of a Discrete Thioesterase in Type II Polyketide Biosynthesis” (mBio, 2020)
